Earlier results in PMC5680437 (Journal of Clinical & Translational Endocrinology, 2015).

Legend:
[1] = subcutaneous; ref Morrow et al. [18]
healthy volunteers = conditions: ref Arnolds et al. [19]
[2] = 0.2 U/kg dose; ref Heise et al. [20]

Substance	Time to 50% of maximal concentration within the first hour [1] [min]	AUC for glucose infusion rate (to maintain euglycemia) (healthy volunteers) [mg/kg]	AUC for the glucose infusion rate in the first hour [2] [mg/kg]
insulin aspart	32	16	
insulin glulisine	21	30	102.3
insulin lispro	31		83.1
